# Measurements as given in PubChem BioAssay (NCI).
# Where “and” joins values, the source holds several entries; their conditions need not be identical. Equal values may be shown once.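 Dose response: 5 concentrations. Exposure: 48 h. Format: 96-well plates. Endpoint: linear interpolation; highest concentration if not reached. Here, GI50 denotes the concentration required for 50% inhibition of growth. Definition used: TGI = concentration required for complete inhibition of growth.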 Calls of active or inactive are those of the source. No stated cut-off is given here; in the data, active means GI50 below about 0.43 µM; inactive means the rest.
# What was measured:
# Experiment in all cases: NCI anticancer screen, dose series, 48 h
# OVCAR-4 ovarian = system: OVCAR-4 ovarian
# SF-295 CNS = system: SF-295 CNS
# COLO 205 colon = system: COLO 205 colon
# A549 NSCLC = system: A549 NSCLC
# NCI-H522 lung = system: NCI-H522 lung
# MDA-MB-435 = system: MDA-MB-435
# K-562 leukemia = system: K-562 leukemia
# SF-268 CNS = system: SF-268 CNS
# T-47D breast = system: T-47D breast
SMILES,TGI (OVCAR-4 ovarian) [µM],TGI (SF-295 CNS),TGI (COLO 205 colon) [µM],TGI (A549 NSCLC) [µM],TGI (NCI-H522 lung) [µM],TGI (MDA-MB-435) [µM],TGI (K-562 leukemia) [µM],GI50 (SF-295 CNS),TGI (SF-268 CNS) [µM],TGI (T-47D breast) [µM],GI50 (SF-268 CNS) [µM],outcome (A549 NSCLC)
C=C1c2nc3ccccc3n2C=C(c2ccc(Cl)cc2)N1c1ccc(OC)cc1,46.2,18.5 µM,> 100,30.4,18.5,30.5,> 100,–,–,–,–,–
CCCSc1nc(-c2ccc(OC)cc2)c(C#N)c(=O)n1C1OC(COC(C)=O)C(OC(C)=O)C(OC(C)=O)C1OC(C)=O (stereo not drawn),> 100,> 100 µM and 92.6 µM,> 100,–,> 100,–,> 100,> 100 µM and 24.3 µM,> 100,–,–,–
N#Cc1nc(C2CCC2)oc1N,> 100,> 100 µM,> 100,> 100,> 100,> 100,> 100,–,> 100,> 100,–,–
CC(C)OC(=O)OCSc1ccccc1N=Cc1cccc([N+](=O)[O-])c1,> 10,> 10 µM,> 10,> 10,> 10,> 10,> 10,–,> 10,> 10,–,–
CC(=O)OC1C(COC(=O)c2ccccc2)OC(Nc2ncc(-c3ccc(Br)cc3)s2)C(OC(=O)c2ccccc2)C1OC(=O)c1ccccc1 (stereo not drawn),> 100,> 100 µM,> 100,> 100,> 100,> 100,> 100,–,> 100,> 100,–,–
CCOC(=O)C1CCC(=O)N1C(=O)c1ccccc1 (stereo not drawn),–,> 100 µM,–,> 100,> 100,> 100,> 100,–,> 100,> 100,–,–
COc1cc2c(cc1Cc1c(F)cccc1Cl)nc(-c1c(F)cccc1Cl)n2Cc1c(F)cccc1Cl,> 100,41.3 µM,> 100,> 100,59,> 100,> 100,–,> 100,59.5,–,–
CSc1n[nH]c(N)c1C(=O)Nc1ccccc1,> 100,–,> 100,> 100,> 100,> 100,> 100,–,> 100,> 100,–,–
O=[N+]([O-])c1ccc2c(c1)C1=NN(c3ccccc3)C(c3ccccc3Br)C1CCC2 (stereo not drawn),> 50,> 50 µM,> 50,> 50,> 50,> 50,> 50,–,> 50,47.3,–,–
CO[C@@H]1O[C@H](C(=O)c2ccccc2)[C@H]2OC(C)(C)O[C@@H]12,> 100,> 100 µM,> 100,–,> 100,> 100,> 100,–,> 100,> 100,–,–
O=c1cc(-c2cc(O)c(O)c(-c3c(O)cc4oc(-c5ccc(O)c(O)c5)cc(=O)c4c3O)c2)oc2cc(O)cc(O)c12,> 25,> 25 µM,> 25,> 25,–,> 25,> 25,–,> 25,> 25,–,–
CC(=O)c1cnc2oc3ccc(O)cc3c2c1-c1ccccc1,36.6,> 100 µM,> 100,> 100,–,> 100,> 100,–,> 100,80.4,27.7,–
O=C1CSC2=NC3=C(COC/C3=C\c3ccc(Br)cc3)C(c3ccc(Br)cc3)N12 (stereo not drawn),> 100,> 100 µM,> 100,–,> 100,> 100,> 100,–,> 100,> 100,–,–
CN(C)CCC(=O)/C=C\c1ccccc1,33.3,45.5 µM,29.3,48.3,39.3,–,36.8,–,–,–,–,–
O=c1[nH]c(=O)n(C2CC(O)C(CO)O2)cc1OCc1ccccc1 (stereo not drawn),> 100,–,> 100,> 100,> 100,> 100,> 100,–,> 100,> 100,–,–
O=C(N/N=C/c1ccc(Br)cc1)N/N=C/c1ccc(Br)cc1,5.11,19.6 µM,> 100,> 100,–,76,> 100,–,24,> 100,–,–
CC(=O)OCc1c(O)c2c(c(O)c1COC(C)=O)C(=O)C=CC2=O,22.7,27.4 µM,10.5,35.9,–,–,> 100,–,30.8,–,–,–
N#Cc1nc(NC(=O)c2ccccc2C(=O)O)c(C#N)[nH]1,–,> 100 µM,> 100,> 100,> 100,> 100,> 100,–,> 100,> 100,–,–
COc1ccc(COCC[C@H](C)OC2OC(CO[Si](C)(C)C(C)(C)C)C(OC(=O)CCCN=[N+]=[N-])C(OC(=O)CCCN=[N+]=[N-])C2OC(=O)CCCN=[N+]=[N-])cc1 (stereo partly drawn),> 100,> 100 µM,83.1,> 100,> 100,> 100,–,–,> 100,> 100,–,–
CCOC(=O)C#Cc1ccccc1,11.7,30.2 µM,25.9,58.3,–,45.6,8.91,–,–,> 100,–,–
CN(C)CCNC(=O)c1cccc2nc(-c3ccccc3)oc12,> 100,> 100 µM,42.8,> 100,–,–,> 100,–,> 100,–,–,–
COc1ccc(-c2cc(-c3ccccc3)[nH]c(=S)c2C#N)cc1,> 100,> 100 µM,–,37.9,> 100,42.8,> 100,–,> 100,94.3,–,–
CC(C(=O)O)C(C)(O)C(=O)O (stereo not drawn),> 100,–,> 100,> 100,> 100,> 100,> 100,–,> 100,> 100,–,–
NS(=O)(=O)c1cccc(NC(=S)NC(=O)Nc2ccc(Cl)c(Cl)c2)c1,76.9,44.7 µM,35.4,61.4,28.6,–,37.2,–,56.4,67.6,–,–
c1c2c(cc(-n3nnc4c3CCCCCC4)c1-n1nnc3c1CCCCCC3)CCCCCC2,–,25.3 µM,–,–,1.85,–,40.6,–,23.8,–,–,inactive
